From patent US20030113312A1, “Skin barrier function and cohesion through enhanced stratum corneum acidification” (The Regents of the University of California, priority 2001, published 2003)

Tests used:
NHE1 antiporter [1] = molecular target: T1, NHE1 antiporter (Homo sapiens, UniProt P19634); experiment: Intracellular pH (BCECF) and recovery from acid load in cultured human keratinocytes; assay type: cell-based
T1 construct: endogenous in cells; host or cells: second passage cultured human keratinocytes from human foreskin (CHK)
T1 sequence (P19634 whole entry): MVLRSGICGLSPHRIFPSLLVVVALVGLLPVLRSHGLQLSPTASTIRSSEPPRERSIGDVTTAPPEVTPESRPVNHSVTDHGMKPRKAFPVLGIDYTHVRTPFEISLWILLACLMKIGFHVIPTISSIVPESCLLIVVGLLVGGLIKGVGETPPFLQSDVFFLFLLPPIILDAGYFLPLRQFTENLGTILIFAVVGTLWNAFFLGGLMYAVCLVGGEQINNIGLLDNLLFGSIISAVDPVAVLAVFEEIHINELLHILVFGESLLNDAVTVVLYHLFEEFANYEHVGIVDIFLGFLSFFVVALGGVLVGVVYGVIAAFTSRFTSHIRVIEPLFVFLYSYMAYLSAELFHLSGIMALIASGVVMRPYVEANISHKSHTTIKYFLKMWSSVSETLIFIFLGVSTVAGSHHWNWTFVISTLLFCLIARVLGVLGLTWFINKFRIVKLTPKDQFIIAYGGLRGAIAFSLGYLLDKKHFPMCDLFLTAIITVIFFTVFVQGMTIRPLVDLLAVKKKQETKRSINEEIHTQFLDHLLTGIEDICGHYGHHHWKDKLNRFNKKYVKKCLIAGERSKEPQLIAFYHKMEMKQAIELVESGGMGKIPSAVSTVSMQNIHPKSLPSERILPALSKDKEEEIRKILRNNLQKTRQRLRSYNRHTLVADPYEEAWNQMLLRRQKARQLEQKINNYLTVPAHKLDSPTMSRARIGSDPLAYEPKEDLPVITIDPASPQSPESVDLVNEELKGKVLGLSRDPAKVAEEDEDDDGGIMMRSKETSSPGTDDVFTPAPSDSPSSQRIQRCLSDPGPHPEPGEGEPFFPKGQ
Protocol: Assessment of Intracellular pH: Keratinocytes were plated on glass coverslips and grown in Cascade 154 medium containing 0.07 mM Ca^2+. The coverslips were incubated in 145 μM BCECF-AM ester at room temperature for 5 minutes, then rinsed for 30 minutes in buffer containing either 28 mM HEPES, 136 mM NaCl, 5 mM KCl, 0.07 mM CaCl2 and 10 mM glucose, pH 7.4 or Ringer solution (136 mM NaCl, 5 mM KCl, 0.03 mM Ca2+, 28 mM TES, 14 mM Na HCO3, NaOH to adjust the pH to 7.4, and 10 mM glucose (pH 7.4, 330 mOsm)). BCECF-AM-ester is membrane permeable; once inside cells it is de-esterified by endogenous […], trapping flourescently-active, acidic BCECF inside the cells. The BCECF-loaded cells were placed in a superfusion chamber mounted on a inverted microscope (Nikon). The keratinocytes were superfused with one of the two solutions, and baseline intracellular pH was monitored constantly using a ratiometric method (Paradiio et al (1987) Am J. Physiol. 253:C30-6). Briefly, BCECF loaded cells were alternately illuminated every 10 seconds with brief flashes (200 milliseconds) of 440 nm and 490 nm light. The resultant fluorescence (at 530 nm) from each stimulating wavelength was measured with a CCD camera (Hamamatsu) digitally ratioed, and stored using a software program (Fluor, Universal Imaging Co., West Chester, Pa.). Whereas fluorescence emission at 440 nm excitation remains constant, indicative of dye concentration, emission from 490 nm varies proportionally with changes intracellular pH. By ratioing the two signals, intracellular pH is measured as a brightness signal corrected for the intracellular dye concentration.
Calibration was performed at the end of each experiment by permeablizing the cells to protons with nigericin, thereby equilibrating intra- and extracellular pH. Superfusing the cells with solutions containing 85 mM NaCl, 50 mM KCl, 0.07 mM CaCl2, […] nigericin (a K^+/H^+ exchanger), and either 28 mM HEPES, or 28 mM TES bubbled with 5% CO2, pH 6.8 or 7.8, allowed to calibrate intracellular signals. […]

NHE1 antiporter [2] = molecular target: T2, NHE1 antiporter (Mus musculus, UniProt Q61165); experiment: Barrier recovery (TEWL) after tape stripping; assay type: in vivo; conditions: for kinetics of barrier recovery after tape-stripping: NHE1 inhibitors, topical, hairless mice
T2 construct: from tissue; host or cells: skin (epidermis / stratum corneum) of living hairless mice
T2 sequence (Q61165 whole entry): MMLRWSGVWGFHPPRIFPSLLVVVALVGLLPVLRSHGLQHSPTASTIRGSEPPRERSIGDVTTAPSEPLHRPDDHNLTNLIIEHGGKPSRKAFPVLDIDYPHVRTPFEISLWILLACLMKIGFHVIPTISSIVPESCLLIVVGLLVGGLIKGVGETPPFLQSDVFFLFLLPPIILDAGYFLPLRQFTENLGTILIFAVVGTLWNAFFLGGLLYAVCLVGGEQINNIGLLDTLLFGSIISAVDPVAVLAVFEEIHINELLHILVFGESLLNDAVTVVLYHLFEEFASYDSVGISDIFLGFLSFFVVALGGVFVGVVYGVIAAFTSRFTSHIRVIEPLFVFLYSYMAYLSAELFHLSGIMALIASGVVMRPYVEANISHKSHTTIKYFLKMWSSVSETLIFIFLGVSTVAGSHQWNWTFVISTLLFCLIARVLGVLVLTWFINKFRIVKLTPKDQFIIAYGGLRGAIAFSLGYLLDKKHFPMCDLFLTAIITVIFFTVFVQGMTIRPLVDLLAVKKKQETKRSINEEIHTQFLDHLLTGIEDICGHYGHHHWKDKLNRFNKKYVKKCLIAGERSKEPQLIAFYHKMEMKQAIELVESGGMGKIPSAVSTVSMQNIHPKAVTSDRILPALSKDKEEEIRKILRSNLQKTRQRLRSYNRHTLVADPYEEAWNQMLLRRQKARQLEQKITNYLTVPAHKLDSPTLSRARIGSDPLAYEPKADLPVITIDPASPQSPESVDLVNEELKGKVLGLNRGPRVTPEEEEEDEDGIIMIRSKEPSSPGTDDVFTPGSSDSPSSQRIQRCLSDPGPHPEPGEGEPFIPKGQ
Protocol: (§1) Permeability Barrier Studies: Normal hairless mice were treated topically twice a daily for three days with BPB (4 mg/mL) or MJ33 (4 mg/mL) both in propylene glycol:ethanol (7:3 v/v) vehicle, or the vehicle alone on an area of 5-6 cm on the backs and flanks as described previously (Mao-Qiang, M., et al., J. Lipid Res. 36:1926-35 (1995)). The doses employed were shown previously to be non-toxic to Murine skin (Mao-Qiang, M., et al. (1995); Mao-Qiang, M., et al., J. Invest. Dermatol. 106:57-63 (1996)), and to inhibit secretory phospholipase A2 (sPLA2) activity selectively in different cell types (Gelb, M. H., et al., Faseb J. 8:916-24 (1994); Jain, M. K., et al. (1991)). The acidification experiments were performed with 10 mM HEPES-buffer, adjusted to either pH 5.5 or pH 7.4 as follows: One flank of anesthetized mice was immersed on a mesh netting, as described previously (Lee, S. H., et al., J. Clin. Invest. 89:530-8 (1992)). The mice were anesthetized with chloral hydrate (Morton Grove Pharmaceuticals, Morton Grove, Ill., USA). After 3 hours immersion at 37° C., the mice were removed, and the remaining buffer was gently blotted off. After 15 minutes, barrier function was determined by measurement of transepidermal water loss (TEWL) with an electrolytic water analyzer (MEECO®, Warrington, Pa.). Surface pH was measured with a flat, glass surface electrode from Mettler-Toledo (Giessen, Germany), attached to a pH meter (Skin pH Meter PH 900, Courage & Khazaka, Cologne, Germany). Individually tested sites were covered with Hilltop Chambers (HtC, nominal volume […]), which were reapplied following each indvidual measurement.
(§2) The stratum corneum was removed by several strippings with adhesive tape (Tesa, Beiersdorf, Germany) inducing an increase in TEWL rates above baseline (from 0.2 to approximately 7-9 g/m^2/h). Two sites were prepared on each animal, and TEWL and surface pH were measured at 0, 2, 5 and 24 hrs following the stripping and the applications of inhibitors. Biopsies were taken for electron microscopy from treated and control sites, at 5 and 24 hours. For studies in the NHE1 knockout mice, homozygous (−/−) mice were compared to their wildtype (+/+) littermates. Flanks of these mice were shaved, and barrier homostasis was studied 48 hours later. For tape-stripping of these animals, D-Squame disks (Cu-derm, Dallas, Tex.) were used, as Tesa tape was too disruptive for application to shaved, hairy mouse skin.
Hairless mice were tape stripped to TEWL of 7-9 g/m^2/h. […] Control areas were covered with Hilltop Chambers containing 10 mM HEPES buffer adjusted to pH 7.4 or pH 5.5 as appropriate. TEWL was measured at 0, 2, 5, and 24 hours post tape-strip. The results are reported as percent barrier recovery from the initial induced defect.

[3] = tested on: hairless mice skin (stratum corneum); experiment: Skin surface pH after topical treatment or buffer exposure; assay type: in vivo, mouse; conditions: free fatty acid co-applied with BPB for three days
Protocol: Animals: Male hairless mice (Skh1/Hr, Charles River Laboratories, Wilmington, Mass.), 8-12 weeks old, were fed Purina mouse diet and water ad libitum. […] Functional experiments were performed on animals aged 6-10 weeks.
The mice were anesthetized with chloral hydrate (Morton Grove Pharmaceuticals, Morton Grove, Ill., USA). After 3 hours immersion at 37° C., the mice were removed, and the remaining buffer was gently blotted off. After 15 minutes, barrier function was determined by measurement of transepidermal water loss (TEWL) with an electrolytic water analyzer (MEECO®, Warrington, Pa.). Surface pH was measured with a flat, glass surface electrode from Mettler-Toledo (Giessen, Germany), attached to a pH meter (Skin pH Meter PH 900, Courage & Khazaka, Cologne, Germany). Individually tested sites were covered with Hilltop Chambers (HtC, nominal volume 200 mL), which were reapplied following each indvidual measurement.

[4] = tested on: hairless mice skin (stratum corneum); experiment: Stratum corneum integrity: TEWL after sequential tape stripping; assay type: in vivo, mouse; conditions: for sPLA2 inhibitor induced abnormalities in stratum corneum integrity and cohesion: fatty acid co-applied with BPB or MJ33; for TEWL rate by the fifth strip: fatty acid co-applied with BPB for three days
Protocol: The mice were anesthetized with chloral hydrate (Morton Grove Pharmaceuticals, Morton Grove, Ill., USA). […] After 15 minutes, barrier function was determined by measurement of transepidermal water loss (TEWL) with an electrolytic water analyzer (MEECO®, Warrington, Pa.). […] Individually tested sites were covered with Hilltop Chambers (HtC, nominal volume 200 mL), which were reapplied following each indvidual measurement.

NHE1 antiporter [5] = molecular target: T2, NHE1 antiporter; experiment: Stratum corneum surface pH after tape stripping with buffers with or without NHE1 inhibitor; assay type: in vivo
Protocol: as §1, §2
To investigate the role of NHE 1 in maintaining the pH balance of the stratum corneum, the integrity of murine skin exposed to different buffers and NHE1 inhibitors, was disrupted by tape-stripping. The pH of the exposed skin was measured before and after tape-stripping. Before tape-stripping, the surface pH in all animals was acidic (6.03+/−0.20, n=78). […] At five hours post-tape-strip, these samples were still not fully recovered, remaining more than 0.05 pH units higher than the initial post-tape-strip values.

[6] = tested on: hairless mice skin (stratum corneum); experiment: Electron microscopy of lamellar body secretion and extracellular lipid processing; assay type: in vivo, mouse; conditions: EM of biopsies
Protocol: as §2
Ultrastructural methods: Freshly obtained biopsies from mouse skin were fixed directly in modified Karnovsky's fixative, postfixed with reduced osmium tetroxide (OS04) and then imbedded in an Epon-epoxy mixture. For visualization of lipid-enriched, lamellar bilayer structures, some samples were post fixed in ruthenium tetroxide (RuO4). Sections were cut on a Reichert Ultracut E microtome, counterstained with uranyl acetate and lead citrate, and viewed in a Zeiss 10 CR electron microscope, operated at 60 kV.
Biopsies were taken during time course experiments.

[7] = tested on: hairless mice skin (stratum corneum); experiment: Stratum corneum cohesion: protein removed per D-Squame stripping; assay type: in vivo, mouse; conditions: for cumulative protein loss at the fifth strip: fatty acid co-applied with BPB for three days
Protocol: Before stripping the stratum corneum, the skin surface was cleaned with a single ethanol wipe. D-Squame tapes then were placed sequentially to the test areas for about 3 sec each, removed with forceps, and stored in glass scintillation vials at 5° C.
The protein content per stripping was determined with the Bio-Rad protein assay kit. […] Each tape was incubated with 1 M NaOH for 1 hour at 37° C. in an incubator shaker at 80 rpm, and neutralized thereafter with 1 mL of 1 M HCl in the scintillation vials. Subsequently, 0.2 mL of this solution was incubated in 0.6 ml distilled water plus 0.2 mL of the Bio-Rad protein dye for 5 minutes in boroscillate tubes. […] An empty D-Squame tape, as well as distilled water incubated with Bio-Rad dye, served as negative controls. The amount of calculated protein was then normalized to skin surface area (μg/cm^2).

[8] = inhibitor in pH 7.4 buffer (amiloride 5 μM, HOE694 7.5 μM), two hours post tape-strip
[9] = inhibitor in pH 7.4 buffer, five hours post tape-strip
[10] = HOE694 in pH 7.4 buffer, two hours post tape strip
[11] = fatty acid co-applied with MJ33 for three days

With `N=C(N)NC(=O)c1nc(Cl)c(N)nc1N` [amiloride, N-Amido-3,5-diamino-6-chloropyrazinecarboxamide] the “effect after wash out period” value (NHE1 antiporter [1]; cultured human keratinocytes, wash out of amiloride, recovery from the acid load) was “non-permanent, non-toxic effect”, the “kinetics of barrier recovery after tape-stripping” value (NHE1 antiporter [2]) was “delayed barrier recovery” and the “percent barrier recovery (TEWL rate less than the initial induced rate)” value (“percent barrier recovery” below) (NHE1 antiporter [2]; [8]) was “about 12%”. The “percent barrier recovery” value (NHE1 antiporter [2]; [9]) was “about 25%”.
With `CCCCC/C=C\C/C=C\CCCCCCCC(=O)O` [linoleic acid] the “pH of the stratum corneum” value [3] was 5.77+/−0.10 and the “sPLA2 inhibitor induced abnormalities in stratum corneum integrity and cohesion” value (from here on “sPLA2 inhibitor induced abnormalities”) [4] was “to a lesser extent”.
With `Cl.N` [NH4Cl, ammonium chloride] the “intracellular pH response” value (NHE1 antiporter [1]; NH4Cl added to cultures of CHK, initial alkalinization, then after dissociation of the ammonium ion) was “take on an acid load”.
`CS(=O)(=O)c1cc(C(=O)NC(=N)N)ccc1N1CCCCC1` [HOE694, 3-methylsulfonyl-4-piperidino-benzoylguanidinemethanesulfonate] was tested, and the “intracellular pH” value (NHE1 antiporter [1]; 1.5 μM for 16 hours, dropped from pH 7.05) was 6.90 pH, the “initial post-tape-strip pH value vs pH 5.5 buffer alone” value (NHE1 antiporter [5]; HOE694 in pH 5.5 buffer) was “increased significantly” and the “pH increase over the initial post-tape-strip value” (NHE1 antiporter [5]; HOE694 in pH 5.5 buffer, five hours post-tape-strip) was “more than 0.05 pH units”. For the same molecule, the “pH increase over the initial post-tape-strip value” (NHE1 antiporter [5]; HOE694 in pH 5.5 buffer, two hours post-tape-strip) was “more than 0.1 pH units”, the “initial post-tape-strip pH value vs pH 7.4 buffer only” value (NHE1 antiporter [5]; HOE694 in pH 7.4 buffer) was “similar” and the “elevated pH at five hours” value (NHE1 antiporter [5]; HOE694 in pH 7.4 buffer, five hours post tape strip) was “persisted and even increased”. The “pH increase over the initial post-tape-strip value” (NHE1 antiporter [5]; [10]) was greater than 0.1 pH unit, the “pH increase over the two hour time point of pH 7.4 buffer alone” value (NHE1 antiporter [5]; [10]) was roughly 0.05 pH units and the “percent barrier recovery” value (NHE1 antiporter [2]; HOE694 in pH 5.5 buffer, 2 hours post tape-strip) was 25%. The “percent barrier recovery” value (NHE1 antiporter [2]; HOE694 in pH 5.5 buffer, 5 hours post tape-strip) was 38%, the “percent barrier recovery” value (NHE1 antiporter [2]; HOE694 in pH 5.5 buffer, 24 hours post tape-strip) was 75% and the “kinetics of barrier recovery after tape-stripping” value (NHE1 antiporter [2]) was “delayed barrier recovery”. The “percent barrier recovery” value (NHE1 antiporter [2]; [8]) was “about 12%”, the “percent barrier recovery” value (NHE1 antiporter [2]; inhibitor in pH 7.4 buffer, 24 hours post tape-strip) was “about 45%” and the “percent barrier recovery” value (NHE1 antiporter [2]; [9]) was 23%. For the same molecule, the “extracellular processing of secreted lipids” value ([6]; HOE694 in pH 5.5 buffer) was “appeared normal”, the “extracellular processing of secreted lipids” value ([6]; HOE694 in pH 7.4 buffer) was “defective” and the “lamellar body formation and secretion” value ([6]; HOE694 in pH 7.4 buffer) was “undisturbed”.
In the case of `CCCCCCCCCCCCCCCC(=O)O` [palmitic acid], the “pH of the stratum corneum” value [3] is reported as 5.40+/−0.14, the “TEWL rate by the fifth strip” value [4] is reported as 55-60 g/m^2/h and the “sPLA2 inhibitor induced abnormalities” value [4] is reported as “prevented emergence”. The “TEWL rate after three sequential tape-strippings” value [4, 11] was 30-35 g/m^2/h, the “cumulative protein loss at the fifth strip” value [7] was “about 40 μg/cm^2” and the “loss of protein after three strippings” value [7, 11] was “about 30 μg/cm^2”.
In the case of `CCCCCCCCCCCCCCCCCC(=O)O` [stearic acid], the “pH of the stratum corneum” value [3] is reported as 5.73+/−0.09, the “TEWL rate by the fifth strip” value [4] is reported as “about 25 g/m^2/h” and the “sPLA2 inhibitor induced abnormalities” value [4] is reported as “prevented emergence”. The “cumulative protein loss at the fifth strip” value [7] was “about 25 μg/cm^2”.
